In the supplement of paper PMC11451515:

System: P12-Ichikawa
Test: cell viability relative to DMSO control; higher = less cytotoxic
Details: 48 h
How it was run: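 Viability is a per-plate percentage relative to DMSO wells, with cell-free wells as background. CellTiter-Glo One luminescence was read after 48 h at 37°C on 1536-well plates (5 μl) of NOMO1 or SEM (500 cells/well) or P12-Ichikawa (1000 cells/well) leukemia cells. The cells had been adapted for at least four passages in each medium and pin-dosed with library compounds in DMSO from 47 μM to 0.79 nM in 11 threefold steps.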

[1] = HPLM + 10% dialyzed FBS, 0.000781 µM
[2] = HPLM + 10% dialyzed FBS, 0.00234 µM
[3] = HPLM + 10% dialyzed FBS, 0.00702 µM
[4] = HPLM + 10% dialyzed FBS, 0.0211 µM
[5] = HPLM + 10% dialyzed FBS, 0.0632 µM
[6] = HPLM + 10% dialyzed FBS, 0.19 µM
[7] = HPLM + 10% dialyzed FBS, 0.569 µM
[8] = HPLM + 10% dialyzed FBS, 1.71 µM
[9] = HPLM + 10% dialyzed FBS, 5.12 µM
[10] = HPLM + 10% dialyzed FBS, 15.4 µM
[11] = HPLM + 10% dialyzed FBS, 46.1 µM
[12] = RPMI 5 mM glucose + 10% FBS, 0.000781 µM
[13] = RPMI 5 mM glucose + 10% FBS, 0.00234 µM
[14] = RPMI 5 mM glucose + 10% FBS, 0.00702 µM
[15] = RPMI 5 mM glucose + 10% FBS, 0.0211 µM
[16] = RPMI 5 mM glucose + 10% FBS, 0.0632 µM
[17] = RPMI 5 mM glucose + 10% FBS, 0.19 µM
[18] = RPMI 5 mM glucose + 10% FBS, 0.569 µM
[19] = RPMI 5 mM glucose + 10% FBS, 1.71 µM
[20] = RPMI 5 mM glucose + 10% FBS, 5.12 µM
[21] = RPMI 5 mM glucose + 10% FBS, 15.4 µM
[22] = RPMI 5 mM glucose + 10% FBS, 46.1 µM
[23] = RPMI 5 mM glucose + 10% dialyzed FBS, 0.000781 µM
[24] = RPMI 5 mM glucose + 10% dialyzed FBS, 0.00234 µM
[25] = RPMI 5 mM glucose + 10% dialyzed FBS, 0.00702 µM
[26] = RPMI 5 mM glucose + 10% dialyzed FBS, 0.0211 µM
[27] = RPMI 5 mM glucose + 10% dialyzed FBS, 0.0632 µM
[28] = RPMI 5 mM glucose + 10% dialyzed FBS, 0.19 µM
[29] = RPMI 5 mM glucose + 10% dialyzed FBS, 0.569 µM
[30] = RPMI 5 mM glucose + 10% dialyzed FBS, 1.71 µM
[31] = RPMI 5 mM glucose + 10% dialyzed FBS, 5.12 µM
[32] = RPMI 5 mM glucose + 10% dialyzed FBS, 15.4 µM
[33] = RPMI 5 mM glucose + 10% dialyzed FBS, 46.1 µM

Compound	cell viability [1]	cell viability [2]	cell viability [3]	cell viability [4]	cell viability [5]	cell viability [6]	cell viability [7]	cell viability [8]	cell viability [9]	cell viability [10]	cell viability [11]	cell viability [12]	cell viability [13]	cell viability [14]	cell viability [15]	cell viability [16]	cell viability [17]	cell viability [18]	cell viability [19]	cell viability [20]	cell viability [21]	cell viability [22]	cell viability [23]	cell viability [24]	cell viability [25]	cell viability [26]	cell viability [27]	cell viability [28]	cell viability [29]	cell viability [30]	cell viability [31]	cell viability [32]	cell viability [33]
Cc1nc(Nc2n[nH]c3c2CN(C(=O)N[C@H](CN(C)C)c2ccccc2)C3(C)C)c2sccc2n1	84.9%	84.7%	76.4%	81%	75.1%	73.5%	72.6%	53.9%	52.3%	45.4%	15.6%	82.3%	81.7%	70.8%	60%	62.3%	59.3%	53.4%	38.5%	41.4%	27.7%	12.8%	80%	81.4%	77.2%	72.1%	63.6%	56%	51.4%	40.6%	38.8%	32.3%	15.8%
CN(C)C1=C(Br)C=C(C=C1)C\2NC3=C(\C4=C2C(=O)CC(C)(C)C4)C5=CC=CC=C5C=C3 (stereo unspecified)	116%	96.7%	118%	116%	116%	113%	106%	108%	107%	103%	108%	112%	115%	116%	104%	111%	100%	109%	101%	105%	102%	107%	112%	111%	110%	113%	117%	109%	102%	111%	101%	97%	104%
Cn1cc(C[C@@H](N)C(=O)O)c2ccccc21	103%	109%	106%	104%	105%	109%	105%	102%	100%	98.2%	97.2%	98.8%	107%	104%	101%	99.6%	106%	107%	97.1%	99.8%	100%	87.1%	91.3%	101%	100%	98.3%	105%	106%	96.5%	100%	95.8%	93%	91.9%
CN1CCN(CCOc2cc(OC3CCOCC3)c3c(Nc4c(Cl)ccc5c4OCO5)ncnc3c2)CC1	121%	125%	130%	134%	130%	128%	136%	124%	101%	32.3%	20%																						
Nc1ncnc2c1nc(Cl)n2[C@@H]1O[C@H](CO)[C@@H](O)[C@H]1O	123%	125%	125%	121%	121%	122%	126%	125%	118%	103%	58.7%																						
